Here are results for 2 compounds from US5362724A, “Thioalkylthio carbacephalosporin derivatives” (Shionogi & Co., Ltd., priority 1992, dated 1994).

≈ marks a conversion by molar mass, not a printed value.

The test system of one data set is E. coli SR377. Briefly: In vitro antibacterial activity (MIC, two-fold agar dilution) against E. coli SR377. Format: cell-based. The following applies: Escherichia coli. As to the method:
(§1) The in vitro antibacterial activity of a compound as prepared in the foregoing Example was evaluated as follows. A compound to be tested was dissolved in 0.01N aqueous solution of sodium hydrogen carbonate and the solution was applied to an agar plate and the minimal inhibitory concentration (MIC) against each bacterium was measured by two-fold dilution method according to the standard method of the Japan Society of Chemotherapy.
(§2) In the assay, as a control compound, 7β-[(Z)-2-(2-amino-4-thiazolyl)-2-hydroxyiminoacetamido]-3-(1,2,3-triazol-4-yl)thiomethylthio-3-cephem-4-carboxylic acid (a thiomethylthio cephalosporin disclosed in U.S. patent application Ser. No. 07/729,413, filed on Jul. 12, 1991, now U.S. Pat. No. 5,214,037, and EPO Application Publication No. 0 467 647 A2) was used.
(§3) In the tables, Compound A is a compound of the invention and Compound B is a control compound.
Background: In agar dilution, organisms are placed on agar that contains the substance at set levels.

Data set [1] has as its system S. maecescense ATCC 13880. Briefly: In vitro antibacterial activity (MIC, two-fold agar dilution) against S. marcescense ATCC 13880. Format: cell-based, Seratia marcescense. As to the method: as §1, §2, §3
Data set [2] is described as follows: In vivo pharmacokinetics, blood level in mice after administration. Particulars: mouse, 10 mg/kg, 3 hr after administration. As to the method:
The in vivo pharmacokinetics was also investigated in mice by measuring the blood level at 3 hr after administrating a test compound to a mouse (10 mg/kg).
as §2, §3

The next data set deals with E. coli JC-2. Briefly: In vitro antibacterial activity (MIC, two-fold agar dilution) against E. coli JC-2. Format: cell-based. The following applies: Escherichia coli, JC2. As to the method:
as §1, §2, §3

Another data set concerns E. cloacae ATCC 13047. The data set can be described thus: In vitro antibacterial activity (MIC, two-fold agar dilution) against E. cloacae ATCC 13047. The class given is cell-based. The following applies: Enterobacter cloacae, ATCC13047. As to the method:
as §1, §2, §3

The test system of another data set is E. cloacae SR233. Briefly: In vitro antibacterial activity (MIC, two-fold agar dilution) against E. cloacae SR233. The class given is cell-based. The following applies: Enterobacter cloacae. As to the method:
as §1, §2, §3

Data set [3] in a line: Binding ability to plasma proteins. Format: in vitro ADME. Particulars: tentative value.
For the next data set, the system named is E. coli SR73. Briefly: In vitro antibacterial activity (MIC, two-fold agar dilution) against E. coli SR73. The class given is cell-based. The following applies: Escherichia coli. As to the method:
as §1, §2, §3

The test system of a further data set is E. coli EC-14. Briefly: In vitro antibacterial activity (MIC, two-fold agar dilution) against E. coli EC-14. Format: cell-based. The following applies: Escherichia coli, EC14. As to the method:
as §1, §2, §3

A further data set deals with K. pneumoniae SRI. Briefly: In vitro antibacterial activity (MIC, two-fold agar dilution) against K. pneumoniae SRI. Format: cell-based. Particulars: Klebsiella pneumoniae. As to the method: as §1, §2, §3

For orientation: MIC means the least concentration at which growth counts as inhibited. High values mean a need for much substance, low ones inhibition by little substance. As a reminder, the fraction unbound is the share of the substance not bound to proteins or other matrix. Take `Nc1nc(/C(=N/O)C(=O)N[C@@H]2C(=O)N3C(C(=O)O)=C(SCSc4c[nH]nn4)CS[C@H]23)cs1` [Compound B, 7β-[(Z)-2-(2-amino-4-thiazolyl)-2-hydroxyiminoacetamido]-3-(1,2,3-triazol-4-yl)thiomethylthio-3-cephem-4-carboxylic acid]: the minimum inhibitory concentration (MIC) with E. coli SR377 worked out at 0.8 µg/mL (≈ 1.55 µM); in data set [1], 3.2 µg/mL (≈ 6.22 µM); in the data set with E. coli JC-2 it was 0.3 µg/mL (≈ 0.583 µM); against E. cloacae ATCC 13047, 100 µg/mL (≈ 194 µM); in the data set on E. cloacae SR233, 0.8 µg/mL (≈ 1.55 µM); against E. coli SR73, 1.6 µg/mL (≈ 3.11 µM). For the same compound, the MIC against E. coli EC-14 and in the data set with K. pneumoniae SRI was 0.1 µg/mL (≈ 0.194 µM) throughout. In addition, the concentration at 3 h in data set [2] turned out to be 18000 ng/mL. Also, the fraction unbound in data set [3] was 0.04.
`Nc1nc(/C(=N/O)C(=O)N[C@@H]2C(=O)N3C(C(=O)O)=C(SCSc4c[nH]nn4)CC[C@H]23)cs1` [Compound A, 7β-[(Z)-2-(2-Aminothiazol-4-yl)-2-hydroxyiminoacetamido]-3-(1,2,3-triazol-4-ylthiomethylthio)-1-carba-3-cephem-4-carboxylic acid]: the minimal inhibitory concentration (MIC) in the data set with E. coli SR377 was found to be 0.2 µg/mL (≈ 0.403 µM); in data set [1], 0.2 µg/mL (≈ 0.403 µM); in the data set on E. coli JC-2 it was 0.05 µg/mL (≈ 0.101 µM); against E. cloacae ATCC 13047, 12.5 µg/mL (≈ 25.2 µM); against E. cloacae SR233, 0.1 µg/mL (≈ 0.201 µM); against E. coli SR73, 0.39 µg/mL (≈ 0.785 µM). Moreover, the MIC in the data set on E. coli EC-14 and in the data set with K. pneumoniae SRI was 0.025 µg/mL (≈ 0.0503 µM) each time. Further, in data set [2], the concentration at 3 h was determined as 82000 ng/mL. Also, in data set [3], the free fraction (fraction unbound) is 0.1.
